The subject of test [1] is laminin (LN), collagen IV (Col-IV) and fibronectin (FN) mRNA in trabecular meshwork cells. The test is described as follows: qRT-PCR of extracellular matrix expression in dexamethasone-induced normal human trabecular meshwork cells. The test is classed as cell-based. Here is the method:
Normal Trabecular Meshwork cells (NTM) were cultured with F12 containing 10% fetal bovine serum (FBS). When the normal human trabecular meshwork cells were 75%-80% confluent, cells were digested with pancreatic enzymes and planted into a 6-well plate with 2 mL culture media per well.
Normal human normal trabecular meshwork cells were used as a untreated control group. Normal human trabecular meshwork cells with dexamethasone added were used as the experimental control group. Normal human trabecular meshwork cells with dexamethasone and different concentrations of salidroside added were used as the experimental groups (The concentration of dexamethasone used in the experimental control group and the experimental groups was 10^−7 mol/L. The concentrations of salidroside were 1, 3, 10, 30, 100 μmol/L, respectively). The trabecular meshwork cells were cultured for 0, 3, 6, 12, 24, 48 h.
Primer sequences for laminin (LN), collagen IV (Col-IV) and fibronectin (FN) mRNA were designed. Messenger RNA levels of LN, Col-IV, and FN were detected with qRT-PCR. Anti-LN, anti-Col-IV, and anti-FN antibodies were used to detect protein expression of the trabecular meshwork extracellular matrix protein in immunocytochemistry.
FIGS. 1-3 show the effect of salidroside detected by the qRT-PCR on the extracellular matrix proteins of human trabecular meshwork induced by the dexamethasone. […]
In general terms: Real-time PCR tracks product formation cycle by cycle.

Test [2] can be described thus: Mouse glaucoma model (intravitreal TGF-β2 overexpression adenovirus vector), intraocular pressure. The test is classed as in vivo, Balb/cJ mice. The note with it: 40 mg/kg intraperitoneal once daily. Here is the method:
1. Salidroside powder was dissolved in normal saline to make 40 mg/kg salidroside solution. 2. Male Balb/cJ mice 8 to 12 weeks old and weighted about […] were used. The selected mice met the requirement of the first-level animal standards. Mice and feed were provided by the Experimental Animal Center of the Ninth People's Hospital, affiliated with Shanghai Jiaotong University School of Medicine. Vivarium temperature was controlled between 15 to 20° C., and relative humidity was 55 to 75%, with 12h light. Food and drinking water were on an ad libitum basis. Mice that met the inclusion criteria were selected: (1) no eye disease; (2) pupillary light reflexes in both eyes in response to direct and indirect light were normal. 4. Intraocular pressure in both the left and the right eye of each conscious mouse was measured and recorded. 5. Weight measurements of each mouse were taken. 4% chloral hydrate was injected to anaesthetize mice at a dose of 10 μL/g body weight; 6. Mouse glaucoma model: 3 μL TGF-β2 overexpression adenovirus vector (3×10^7 pfu/μL) was injected into the vitreous chamber to induce ocular hypertension. […] On the day of adenovirus vector intravitreal injection, mouse intraocular pressure was measured once. Intraocular pressure was measured again on the next day and subsequent selected days to avoid damage to the cornea caused by frequent measurement. […]

Test [3] is described as follows: Rabbit glaucoma model (1% dexamethasone eye drops), intraocular pressure. The test is classed as in vivo, New Zealand white rabbit. The settings on record: one week; for Average intraocular pressure, Left eye: 3 times a day, two drops, 4 h after treatment; for IOP reduction rate: left eye vs right eye; for Average intraocular pressure, Right eye: right eye as control. The procedure:
1. Salidroside powder was dissolved in normal saline to prepare salidroside eye drops at the concentrations of 20 μM, 25 μM, 30 μM.
2. Fitly healthy, adult New Zealand white rabbit with body weight between 2.0 to 3.0 kg, consisting of equal numbers of male and female, were chosen for study. Rabbit glaucoma model was established by dosing the animals with 1% dexamethasone eye drops on both eyes 5 times a day for a total induction time of 3 weeks. Intraocular pressure was monitored starting from week 2. Glaucoma model was considered successfully established when intraocular pressure, measured at the same time of the day, was above 22 mmHg for a week. Glaucoma model was successful established on all 50 rabbits with the average intraocular pressure of 26.07±2.03 mmHg (n=100 eyes). Rabbits were randomly divided into 5 groups of 10: the normal control group, positive drug group (Travatan®, 0.004% travoprost eye drops), and three salidroside groups (20 μM, 25 μM, 30 μM salidroside).
Positive drug group was treated with Travatan® in the left eye, three times a day, two drops each time. Intraocular pressure was measured 4 hours after treatment. Treatment lasted for two weeks. The three salidroside groups were treated with salidroside eye drops three times a day, two drops each time. Intraocular pressure was measured 4 hours after treatment. Treatment lasted for two weeks. The normal control group received eye drops in both eyes three times a day, two drops each time. Intraocular pressure was measured 4 hours after receiving eye drops. Eye drops were administered for 2 weeks.
One week after the start of experiment, the average pressure for each eye after each measurement in each group is shown in Table 1.

Regarding `OC[C@H]1O[C@@H](OCCc2ccc(O)cc2)[C@H](O)[C@@H](O)[C@@H]1O` [Salidroside, 2-(4-HYDROXYPHENYL) ETHYL-BETA-D-GLUCOPYRANOSIDE], in test [1] (applicant's previous studies, dexamethasone-induced cells, after intervention of salidroside), the “expression level of TGF beta, FN, COL-IV and LN” value is “decreases”. For the same molecule, the “extracellular matrix proteins of the trabecular meshwork (FN, COL-IV, LN; qRT-PCR)” value in test [1] (dexamethasone 10^-7 mol/L plus salidroside 1, 3, 10, 30, 100 μmol/L, normal human trabecular meshwork cells) was “reduced”. Moreover, the “intraocular pressure vs glaucoma control group” value in test [2] (salidroside intervention group (treated immediately after vector injection), 11th day after initiation) is listed as “statistically significantly lowered”; in test [2] (salidroside treatment group (treated after IOP increased and stabilized), 18th day after initiation), “statistically significantly lowered”. The “Average intraocular pressure, Left eye” value in test [3] (20 μM eye drops) is 15.57 ± 1.52 mmHg; in test [3] (25 μM eye drops), 15.07 ± 1.19 mmHg; in test [3] (30 μM eye drops), 14.37 ± 1.54 mmHg. In addition, the IOP reduction rate amounted to 30.98% in test [3] (20 μM eye drops), 34.56% in test [3] (25 μM eye drops) and 37.19% in test [3] (30 μM eye drops). Besides, the “Average intraocular pressure, Right eye” value in test [3] (20 μM group) turned out to be 22.56 ± 1.72 mmHg; in test [3] (25 μM group), 23.03 ± 1.02 mmHg; in test [3] (30 μM group), 22.88 ± 1.09 mmHg. Further, in test [3] (P<0.01), the “average intraocular pressure in the left eye compared with the corresponding right eye as a control” value was “significant lowered”. In addition, in test [3] (salidroside groups 20, 25, 30 μM eye drops), the “IOP-lowering effect compared with the Travatan group” value was “better than that of the Travatan® group”.

The values above are taken from patent US20210260091A1, “USE OF SALIDROSIDE AND DERIVATIVE THEREOF IN PREPARATION OF INHIBITOR MEDICAMENT FOR DISEASES OF OPHTHALMIC FIBROSIS CAUSED BY ABNORMALITIES OF EXTRACELLULAR MATRIX PROTEINS” (priority 2018, published 2021).
